Values of other authors in paper PMC10459069, “Comparative Serum and Brain Pharmacokinetics of Quercetin after Oral and Nasal Administration to Rats as Lyophilized Complexes with β-Cyclodextrin Derivatives and Their Blends with Mannitol/Lecithin Microparticles” (Pharmaceutics, 2023).

How the values were obtained:
[1] = rats
[2] = design: method as in PMID 19720149; conditions: mice, 6-week treatment with Que-enriched diets (2 mg/g diet)
[3] = reference not given

| Cmax/dose ratio ([1]; intragastric administration of 100 mg/kg of pure Que, ref Yang et al. (2016) 46) | levels in the brain ([1]; single oral administration of Que) | brain levels [2] [µg/g] | logP [3] | SMILES |
| --- | --- | --- | --- | --- |
| 0.03 | did not reveal measurable levels | 0.085 | – | O=c1c(O)c(-c2ccc(O)c(O)c2)oc2cc(O)cc(O)c12 [Que, Quercetin] |
| – | – | – | −3.4 | OC[C@@H](O)[C@@H](O)[C@H](O)[C@H](O)CO [mannitol, Mannitol] |
